≈ marks a conversion by molar mass, not a printed value. Calls of active or inactive are those of the source. The rule behind the calls is not given here.
Assays:
[1] = target: T1, Protein deacetylase HDAC6 (Homo sapiens, UniProt Q9UBN7); test: Inhibition of HDAC6 in human BEAS-2B cells assessed as deacetylation of acetylated histone-3 level incubated for 24 hrs by Western blot analysis; assay type: cell-based
T1 sequence (Q9UBN7 whole entry): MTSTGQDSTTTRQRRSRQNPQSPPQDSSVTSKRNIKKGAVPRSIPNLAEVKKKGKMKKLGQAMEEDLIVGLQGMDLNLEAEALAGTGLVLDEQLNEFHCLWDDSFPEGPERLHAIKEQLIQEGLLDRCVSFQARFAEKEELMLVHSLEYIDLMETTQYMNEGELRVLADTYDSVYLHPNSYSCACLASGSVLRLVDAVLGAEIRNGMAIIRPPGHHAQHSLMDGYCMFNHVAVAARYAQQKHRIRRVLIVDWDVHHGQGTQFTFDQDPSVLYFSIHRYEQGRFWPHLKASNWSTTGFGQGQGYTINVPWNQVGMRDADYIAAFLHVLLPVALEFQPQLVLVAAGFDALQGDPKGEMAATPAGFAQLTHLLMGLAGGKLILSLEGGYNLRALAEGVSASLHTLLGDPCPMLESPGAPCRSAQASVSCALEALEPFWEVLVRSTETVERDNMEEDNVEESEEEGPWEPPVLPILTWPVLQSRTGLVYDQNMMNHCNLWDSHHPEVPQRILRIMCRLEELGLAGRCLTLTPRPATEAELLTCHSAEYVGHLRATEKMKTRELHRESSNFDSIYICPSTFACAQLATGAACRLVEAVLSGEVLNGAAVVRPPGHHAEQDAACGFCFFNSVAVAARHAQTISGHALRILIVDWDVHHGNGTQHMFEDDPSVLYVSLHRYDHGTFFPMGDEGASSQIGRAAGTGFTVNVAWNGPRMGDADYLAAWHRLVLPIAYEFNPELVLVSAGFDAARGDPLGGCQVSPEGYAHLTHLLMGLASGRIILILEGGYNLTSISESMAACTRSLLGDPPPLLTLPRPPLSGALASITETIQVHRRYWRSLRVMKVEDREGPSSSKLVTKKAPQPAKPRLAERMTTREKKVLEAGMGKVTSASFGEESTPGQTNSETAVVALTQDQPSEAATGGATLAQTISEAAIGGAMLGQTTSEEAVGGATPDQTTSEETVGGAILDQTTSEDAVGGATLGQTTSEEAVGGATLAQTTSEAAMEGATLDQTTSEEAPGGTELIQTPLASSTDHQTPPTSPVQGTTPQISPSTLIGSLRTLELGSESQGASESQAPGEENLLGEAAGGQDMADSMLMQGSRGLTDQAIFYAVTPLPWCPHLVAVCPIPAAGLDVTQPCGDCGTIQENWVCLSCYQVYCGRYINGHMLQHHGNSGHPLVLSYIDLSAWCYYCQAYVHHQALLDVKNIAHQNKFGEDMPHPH

[2] = Chemical stability of compound in HCL solution at pH 1 assessed as half life by UPLC analysis; assay type: physicochemical
THP-1 [3] = test: Cytotoxicity against human THP-1 cells assessed as reduction in cell viability by alamar blue staining based assay; assay type: functional
[4] = Chemical stability of compound in sodium carbonate buffer at pH 10 assessed as half life by UPLC analysis; assay type: physicochemical
THP-1 [5] = test: Cytotoxicity against human THP-1 cells assessed as reduction in cell viability measured upto 250 uM by alamar blue staining based assay; assay type: functional
[6] = target: T1, Protein deacetylase HDAC6; test: Inhibition of HDAC6 in human BEAS-2B cells assessed as deacetylation of acetylated alpha-tubulin level incubated for 24 hrs by Western blot analysis; assay type: cell-based
[7] = Aqueous solubility of the compound at pH 7.4; assay type: physicochemical
[8] = Chemical stability of compound in sodium phosphate buffer at pH 7.4 assessed as half life by UPLC analysis; assay type: physicochemical
[9] = target: T1, Protein deacetylase HDAC6; test: Inhibition of full length TEV-cleavable N-terminal His6-tagged human recombinant HDAC6 using Ac-RGK (Ac)-AMC as substrate preincubated for 20 hrs followed by substrate addition and measured after 3 hrs by microplate reader analysis
[10] = Metabolic stability in human liver microsomes assessed as disappearance of parent compound; assay type: ADME, Microsome; conditions: read-out: CLH
[11] = target: T1, Protein deacetylase HDAC6; test: Stability of the compound assessed as full-length human HDAC6 mediated-drug degradation measured after 96 hrs by time-resolved mass spectrometry analysis; assay type: ADME
[12] = target: T2, Protein deacetylase HDAC6 (Homo sapiens) (UniProt Q9UBN7); test: Inhibition of HDAC6 in human BEAS-2B cells assessed as deacetylation of acetylated alpha-tubulin level at 10 uM incubated for 24 hrs by Western blot analysis; assay type: cell-based
T2 sequence (whole entry): T1 sequence (Q9UBN7 whole entry)

Compound | IC50 [1] | half-life [2] | half-life [4] | EC50 [6] | solubility [7] | half-life [8] | IC50 [9] | microsomal CLint [10] | Stability [11] | inhibition [12] | IC50 [6] | IC50 (THP-1 [3]; read-out: pIC50 (converted)) | Activity (THP-1 [5]) | IC50 (THP-1 [3]; read-out: IC50)
FC(F)c1nnc(-c2ccc(Cn3nnc(-c4ccccn4)n3)cc2)o1 | > 10000 nM | 7.44 h | < 13.7 h | 3160 nM | 14 µM (≈ 4.97 µg/mL) | 240 h | 2 nM | < 3 µL/min/mg | – | – | – | > 251000 nM | inactive | –
FC(F)c1nnc(-c2ccc(Cn3nnc(-c4ccc(Cl)cc4)n3)nc2)o1 | > 10000 nM | – | – | 1260 nM | 1.3 µM (≈ 0.507 µg/mL) | – | 2 nM | < 3 µL/min/mg | – | – | – | – | – | –
Fc1cc(-c2nnc(C(F)F)o2)cc(F)c1Cn1nnc(-c2ccccn2)n1 | > 10000 nM | < 13.7 h | < 13.7 h | 3160 nM | 52 µM (≈ 20.3 µg/mL) | 57.6 h | 6.31 nM | < 3 µL/min/mg | – | – | – | > 251000 nM | inactive | –
COc1cccc(CNC(=O)c2csc(-c3nnn(Cc4ccc(-c5nnc(C(F)(F)F)o5)cc4)n3)c2)c1 | – | – | – | – | – | – | 12.6 nM | – | – | inactive | – | – | – | –
COc1cccc(CNC(=O)c2csc(-c3nnn(Cc4ccc(C(=O)NO)cc4)n3)c2)c1 | – | – | – | – | – | – | – | – | – | – | 200 nM | – | – | –
FC(F)c1nnc(-c2ccc(Cn3nnc(-c4ccccn4)n3)cn2)o1 | – | – | – | – | 120 µM (≈ 42.8 µg/mL) | – | > 10000 nM | < 3 µL/min/mg | – | – | – | – | – | –
FC(F)c1nnc(-c2cnc(NC3(c4ccccc4)CCC(F)(F)CC3)nc2)o1 | > 10000 nM | – | – | 631 nM | 2.6 µM (≈ 1.06 µg/mL) | – | 3.98 nM | 12 µL/min/mg | Unstable | – | – | 158000 nM | – | 130000 nM
FC(F)c1nnc(-c2cnc(Cn3nnc(-c4ccccn4)n3)nc2)o1 | > 10000 nM | 7.2 h | < 13.7 h | 1580 nM | 120 µM (≈ 42.9 µg/mL) | 26.4 h | 15.8 nM | < 3 µL/min/mg | Unstable | – | – | – | – | –
COc1cccc(CNC(=O)c2csc(-c3nnn(Cc4ccc(-c5nnc(C)o5)cc4)n3)c2)c1 | – | – | – | – | – | – | > 100000 nM | – | – | – | – | – | – | –
COc1cccc(-c2nnn(Cc3ccc(-c4nnc(C(F)F)o4)cn3)n2)c1 | > 10000 nM | – | – | 316 nM | 2.9 µM (≈ 1.12 µg/mL) | – | 2 nM | 18 µL/min/mg | – | – | – | – | – | –
FC(F)c1nnc(-c2ccc(Cn3nnnc3-c3ccccn3)cc2)o1 | > 10000 nM | – | – | > 10000 nM | 2.6 µM (≈ 0.924 µg/mL) | – | 31.6 nM | 5.8 µL/min/mg | – | – | – | > 251000 nM | inactive | –

Further lines, with some results ahead:

IC50 [1] | half-life [2] | half-life [4] | EC50 [6] | solubility [7] | half-life [8] | IC50 [9] | microsomal CLint [10] | Stability [11] | inhibition [12] | IC50 [6] | Compound | IC50 (THP-1 [3]; read-out: pIC50 (converted)) | Activity (THP-1 [5]) | IC50 (THP-1 [3]; read-out: IC50)
5010 nM | 624 h | 504 h | 20 nM | 710 µM (≈ 236 µg/mL) | 1730 h | < 0.316 nM | < 3 µL/min/mg | Stable | – | – | O=C(NO)c1cc(F)c(Cn2nnc(-c3ccccn3)n2)c(F)c1 | 63100 nM | – | 60000 nM
> 10000 nM | – | – | 398 nM | 5.8 µM (≈ 2.26 µg/mL) | – | 0.631 nM | < 3 µL/min/mg | – | – | – | FC(F)c1nnc(-c2ccc(Cn3nnc(-c4ccccc4Cl)n3)nc2)o1 | > 251000 nM | inactive | –
> 10000 nM | – | – | 1000 nM | 170 µM (≈ 60.6 µg/mL) | – | 1.26 nM | < 3 µL/min/mg | – | – | – | FC(F)c1nnc(-c2ccc(Cn3nnc(-c4cccnc4)n3)nc2)o1 | – | – | –
> 10000 nM | – | – | 501 nM | 2.3 µM (≈ 0.96 µg/mL) | – | 1 nM | 7.5 µL/min/mg | – | – | – | CNC(=O)c1csc(-c2nnn(Cc3ccc(-c4nnc(C(F)F)o4)cc3)n2)c1 | > 251000 nM | inactive | –
> 10000 nM | – | – | 316 nM | 2.9 µM (≈ 1.03 µg/mL) | – | 0.794 nM | < 3 µL/min/mg | – | – | – | FC(F)c1nnc(-c2ccc(Cn3nnc(-c4ccccc4)n3)nc2)o1 | > 251000 nM | inactive | –
> 10000 nM | – | – | 631 nM | 3.1 µM (≈ 1.21 µg/mL) | – | 1.58 nM | < 3 µL/min/mg | – | – | – | FC(F)c1nnc(-c2ccc(Cn3nnc(-c4cccc(Cl)c4)n3)nc2)o1 | – | – | –
– | – | – | – | < 1.6 µM | – | 1.58 nM | 160 µL/min/mg | – | – | 10 nM | COc1cccc(CNC(=O)c2csc(-c3nnn(Cc4ccc(-c5nnc(C(F)F)o5)cc4)n3)c2)c1 | – | – | –

— ChEMBL document CHEMBL5370608, “Selective and Bioavailable HDAC6 2-(Difluoromethyl)-1,3,4-oxadiazole Substrate Inhibitors and Modeling of Their Bioactivation Mechanism” (J Med Chem, 2023)
